Source: PubChem BioAssay (NCI)
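Values below derive from 48-hour exposures of cells grown in 96-well plates, with endpoints linearly interpolated between the two concentrations bracketing the appropriate inhibition level. GI50: concentration for 50% inhibition of growth. TGI is the concentration that stops growth completely.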

These molecules were tested on SN12C renal (assay: NCI tumour cell line growth inhibition, 48 h).

SMILES | GI50 [µM] | TGI [µM]
COc1cc(/C=C2\SC(N3CCCCC3)=NC2=O)ccc1OCCCCCCOc1ccc(/C=C2\SC(N3CCCCC3)=NC2=O)cc1OC | 19 | > 100
Cc1cc(C)nc(NS(=O)(=O)c2ccc(Nc3c4ccccc4nc4c(C(=O)NCCN(C)C)cccc34)cc2)n1 | – | 17.3
CCOC1Oc2ccc(C)cc2C(=O)/C1=C\Nc1ccc(S(N)(=O)=O)cc1 (centres undefined) | 11.6 | 31.9
Cc1cc(NN=C(c2ccc(O)cc2)c2ccc(O)cc2)c([N+](=O)[O-])cc1[N+](=O)[O-] | 6.79 | 24.7
COc1ccc(-c2c(N)noc2-c2cc(OC)c3c(c2)OCCO3)cc1 | 0.0438 | > 100
COc1ccc(-c2cc(/C=C/C(=O)c3ccc(N)cc3)[nH]n2)cc1 | 1.89 | 6.63
CCOC(=O)c1c(NC(=O)c2ccc(Cl)cc2)sc2c(CN(C)C)c(O)ccc12 | 14.6 | > 100
CCCCC1(C(NC(=O)c2ccccc2Cl)c2ccncc2)C(=O)N(c2ccccc2)N(c2ccccc2)C1=O (centres undefined) | – | > 100
N#Cc1cc(S(=O)(=O)Nc2nc3cc(Cl)ccc3o2)c(SCc2ccccc2)cc1Cl | 15.4 | 29.1
C#C[C@]1(O)CC[C@H]2[C@@H]3CC=C4c5nc(N)sc5CC[C@]4(C)[C@H]3CC[C@@]21C | 10.1 | 30.6
C1=CC2CCC1CN2CCC1CNc2ccccc21 (centres undefined) | – | > 100
O=CN1N=C(c2cccc(Nc3ccnc4cc(Cl)ccc34)c2)CC1c1ccc(Cl)cc1 (centres undefined) | 3.86 | > 100
O=C1C(=O)C2(CC1S(=O)(=O)c1ccccc1)c1ccccc1-c1ccccc12 (centres undefined) | – | 78.1
Cc1ccc(S(=O)C(C)C(Cl)c2ccccc2)cc1 (centres undefined) | – | > 100
CN1CCc2ccccc2C(C(=O)c2ccc3c(c2)OCO3)C1=O (centres undefined) | – | > 100
Cc1cc(Cl)ccc1NC(=O)C1C(=O)N(c2ccc(Cl)cc2C)C(=O)/C1=N\NC(N)=S (centres undefined) | – | 96.3
COc1ccc(C2=Nn3c(nnc3-n3nc(C)cc3C)SC2)cc1 | 0.298 | > 100
COc1cc(-c2nn(-c3cccc(NC(=O)CCNc4ccc(N5CCOCC5)cc4)c3)cc2-c2ccncc2)ccc1Cl | 3.19 | > 100
COc1ccc(Br)c(C(=O)N2CCc3ccccc32)c1N | – | > 100
COc1ccc(C)cc1NC(=S)C#N | – | > 100
CC(=O)Oc1cc2cnc3c4cc(OC(C)=O)c(OC(C)=O)cc4ccc3c2cc1OC(C)=O | 2.18 | > 100
Cc1ccc2ccc(-c3ccccc3)c3c2c1C(=O)c1ccccc1C3=O | – | > 100
OCC(O)C(O)C(O)c1nn(-c2ccc(F)cc2)c2nc3cc(Cl)c(Cl)cc3nc12 (centres undefined) | – | 62.4
CCCCCC[C@H]1C(=O)O[C@H](C)[C@H](NC(=O)c2cccc(NC=O)c2OC)C(=O)O[C@@H](C)[C@@H]1OC(=O)CCC (tested in a mixture with another compound) | 16.2 | 37.1
COc1ccc(C2Cc3cc(OC)c(OC)c(OC)c3C2)cc1 (centres undefined) | – | > 100

What follows are molecules tested on UACC-257 melanoma (assay: NCI tumour cell line growth inhibition, 48 h).

SMILES | GI50 [nM] | TGI [µM]
CN(C)c1ccc(C(O)C2=CC(=O)c3ccccc3C2=O)cc1 (centres undefined) | 18400 | 41
Clc1ccc(CN2CCCN(Cc3ccc(Cl)cc3)C2c2cc3ccccc3c3ccccc23)cc1 | – | 56.1
COc1ccc2c(c1OC)O/C(=C\c1ncc([N+](=O)[O-])n1C)C2=O | 788 | 2.67
C[C@H]1CC[P+](C)(c2ccccc2)C1 (some centres undefined) | – | > 100
C=C1CC[C@H]2C(C)=CC[C@H]3C(=C)C(=O)O[C@@H]3[C@@H]12 | – | > 100
COc1cc(OC)c2c(=O)c3cccc([N+](=O)[O-])c3n(C)c2c1 | – | > 100
COc1ccc(-c2csc(Nc3cccc(-c4csc(C)n4)c3)n2)cc1 | 3260 | 19.7
COc1cc(/C=C2\SC(N3CCCCC3)=NC2=O)ccc1OCCCCCCOc1ccc(/C=C2\SC(N3CCCCC3)=NC2=O)cc1OC | 17400 | 47.6
Cc1cc(NN=C(c2ccc(O)cc2)c2ccc(O)cc2)c([N+](=O)[O-])cc1[N+](=O)[O-] | 4710 | 8.29
COc1ccc(-c2cc(/C=C/C(=O)c3ccc(N)cc3)[nH]n2)cc1 | 1900 | 4.21
CCCCC1(C(NC(=O)c2ccccc2Cl)c2ccncc2)C(=O)N(c2ccccc2)N(c2ccccc2)C1=O (centres undefined) | – | > 100
N#Cc1cc(S(=O)(=O)Nc2nc3cc(Cl)ccc3o2)c(SCc2ccccc2)cc1Cl | 13000 | 25.7
C#C[C@]1(O)CC[C@H]2[C@@H]3CC=C4c5nc(N)sc5CC[C@]4(C)[C@H]3CC[C@@]21C | 2360 | 6.86
C1=CC2CCC1CN2CCC1CNc2ccccc21 (centres undefined) | – | > 100
O=C1C(=O)C2(CC1S(=O)(=O)c1ccccc1)c1ccccc1-c1ccccc12 (centres undefined) | – | 33
Cc1ccc(S(=O)C(C)C(Cl)c2ccccc2)cc1 (centres undefined) | – | > 100
CN1CCc2ccccc2C(C(=O)c2ccc3c(c2)OCO3)C1=O (centres undefined) | – | > 100
Cc1cc(Cl)ccc1NC(=O)C1C(=O)N(c2ccc(Cl)cc2C)C(=O)/C1=N\NC(N)=S (centres undefined) | – | > 100
COc1cc(-c2nn(-c3cccc(NC(=O)CCNc4ccc(N5CCOCC5)cc4)c3)cc2-c2ccncc2)ccc1Cl | 2380 | 8.72
COc1ccc(Br)c(C(=O)N2CCc3ccccc32)c1N | – | > 100
COc1ccc(C)cc1NC(=S)C#N | – | > 100
CC(=O)Oc1cc2cnc3c4cc(OC(C)=O)c(OC(C)=O)cc4ccc3c2cc1OC(C)=O | 2560 | > 100
Cc1ccc2ccc(-c3ccccc3)c3c2c1C(=O)c1ccccc1C3=O | – | > 100
OCC(O)C(O)C(O)c1nn(-c2ccc(F)cc2)c2nc3cc(Cl)c(Cl)cc3nc12 (centres undefined) | – | 55.1
CCCCCC[C@H]1C(=O)O[C@H](C)[C@H](NC(=O)c2cccc(NC=O)c2OC)C(=O)O[C@@H](C)[C@@H]1OC(=O)CCC (tested in a mixture with another compound) | 2810 | 11.9
COc1ccc(C2Cc3cc(OC)c(OC)c(OC)c3C2)cc1 (centres undefined) | – | > 100

What follows are molecules tested on SNB-75 CNS (assay: NCI tumour cell line growth inhibition, 48 h).

SMILES | TGI [µM] | GI50 [nM]
Clc1ccc(CN2CCCN(Cc3ccc(Cl)cc3)C2c2cc3ccccc3c3ccccc23)cc1 | 78.5 | –
COc1ccc2c(c1OC)O/C(=C\c1ncc([N+](=O)[O-])n1C)C2=O | 6.85 | 2140
COc1ccc(/C=C\c2cc(OC)c(OC)c(OC)c2)cc1 | 0.000932 | –
C[C@H]1CC[P+](C)(c2ccccc2)C1 (some centres undefined) | > 100 | –
COc1cc(OC)c2c(=O)c3cccc([N+](=O)[O-])c3n(C)c2c1 | > 100 | –
COc1cc(/C=C2\SC(N3CCCCC3)=NC2=O)ccc1OCCCCCCOc1ccc(/C=C2\SC(N3CCCCC3)=NC2=O)cc1OC | 6.4 | 2340
Cc1cc(C)nc(NS(=O)(=O)c2ccc(Nc3c4ccccc4nc4c(C(=O)NCCN(C)C)cccc34)cc2)n1 | 24.4 | –
CCOC1Oc2ccc(C)cc2C(=O)/C1=C\Nc1ccc(S(N)(=O)=O)cc1 (centres undefined) | > 50 | 18500
Cc1cc(NN=C(c2ccc(O)cc2)c2ccc(O)cc2)c([N+](=O)[O-])cc1[N+](=O)[O-] | 60.5 | 6840
COc1ccc(-c2c(N)noc2-c2cc(OC)c3c(c2)OCCO3)cc1 | 39 | < 10
COc1ccc(-c2cc(/C=C/C(=O)c3ccc(N)cc3)[nH]n2)cc1 | 11.4 | 2250
CCOC(=O)c1c(NC(=O)c2ccc(Cl)cc2)sc2c(CN(C)C)c(O)ccc12 | 19 | 3250
CCCCC1(C(NC(=O)c2ccccc2Cl)c2ccncc2)C(=O)N(c2ccccc2)N(c2ccccc2)C1=O (centres undefined) | 71.4 | –
C1=CC2CCC1CN2CCC1CNc2ccccc21 (centres undefined) | > 100 | –
O=C1C(=O)C2(CC1S(=O)(=O)c1ccccc1)c1ccccc1-c1ccccc12 (centres undefined) | > 100 | –
Cc1ccc(S(=O)C(C)C(Cl)c2ccccc2)cc1 (centres undefined) | > 100 | –
CN1CCc2ccccc2C(C(=O)c2ccc3c(c2)OCO3)C1=O (centres undefined) | > 100 | –
COc1ccc(C2=Nn3c(nnc3-n3nc(C)cc3C)SC2)cc1 | – | 21.4
COc1cc(-c2nn(-c3cccc(NC(=O)CCNc4ccc(N5CCOCC5)cc4)c3)cc2-c2ccncc2)ccc1Cl | > 100 | 4220
COc1ccc(Br)c(C(=O)N2CCc3ccccc32)c1N | 90.3 | –
COc1ccc(C)cc1NC(=S)C#N | > 100 | –
CC(=O)Oc1cc2cnc3c4cc(OC(C)=O)c(OC(C)=O)cc4ccc3c2cc1OC(C)=O | 7.7 | 250
Cc1ccc2ccc(-c3ccccc3)c3c2c1C(=O)c1ccccc1C3=O | 68.7 | –
OCC(O)C(O)C(O)c1nn(-c2ccc(F)cc2)c2nc3cc(Cl)c(Cl)cc3nc12 (centres undefined) | 13.2 | –
COc1ccc(C2Cc3cc(OC)c(OC)c(OC)c3C2)cc1 (centres undefined) | 84.8 | –
